Measured values from patent US20250129027A1 (APOGEE PHARMACEUTICALS, INC., priority 2023, published 2025).

Tests used:
human recombinant MAGL = human recombinant MAGL (Homo sapiens (Human), UniProt Q99685); assay: In vitro inhibition of MAGL activity (inhibitor screening kit, 4-nitrophenylacetate); format: biochemical; settings: human recombinant MAGL
Summary of the method: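 Colorimetric kit assay: recombinant human MAGL hydrolyses 4-nitrophenylacetate to 4-nitrophenol, read by absorbance at 405-412 nm. Inhibition given as percentage of signal in treated versus untreated MAGL control.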

human recombinant FAAH = human recombinant FAAH (Homo sapiens (Human), UniProt O00519); assay: In vitro inhibition of FAAH activity (fluorescent inhibitor screening kit, AMC arachidonoyl amide); format: biochemical; settings: human recombinant FAAH; read-out: Inhibition on FAAH activity (IC50)
Summary of the method: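 Fluorogenic kit assay: AMC arachidonoyl amide is cleaved by human recombinant FAAH, read at 340-360/450-465 nm. Percent inhibition versus non-treated control; IC50 values derived from multiple compound concentrations where tested.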

Chain of human recombinant FAAH (O00519 whole entry): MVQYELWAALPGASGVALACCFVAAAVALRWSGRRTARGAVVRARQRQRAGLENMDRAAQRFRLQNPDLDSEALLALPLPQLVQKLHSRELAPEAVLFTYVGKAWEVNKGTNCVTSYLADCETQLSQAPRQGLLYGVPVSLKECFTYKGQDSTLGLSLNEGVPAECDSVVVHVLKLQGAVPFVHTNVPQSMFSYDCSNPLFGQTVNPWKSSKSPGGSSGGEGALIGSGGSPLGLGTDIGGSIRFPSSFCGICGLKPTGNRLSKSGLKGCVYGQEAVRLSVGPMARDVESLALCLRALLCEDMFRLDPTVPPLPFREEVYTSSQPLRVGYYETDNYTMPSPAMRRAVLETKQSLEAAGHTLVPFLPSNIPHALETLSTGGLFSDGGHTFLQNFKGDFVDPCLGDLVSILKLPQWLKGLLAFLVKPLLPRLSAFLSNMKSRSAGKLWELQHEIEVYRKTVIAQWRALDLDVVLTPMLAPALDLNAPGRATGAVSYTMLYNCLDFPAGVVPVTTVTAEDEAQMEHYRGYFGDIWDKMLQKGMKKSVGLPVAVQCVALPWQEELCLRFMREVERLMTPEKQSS
Chain of human recombinant MAGL (Q99685 whole entry): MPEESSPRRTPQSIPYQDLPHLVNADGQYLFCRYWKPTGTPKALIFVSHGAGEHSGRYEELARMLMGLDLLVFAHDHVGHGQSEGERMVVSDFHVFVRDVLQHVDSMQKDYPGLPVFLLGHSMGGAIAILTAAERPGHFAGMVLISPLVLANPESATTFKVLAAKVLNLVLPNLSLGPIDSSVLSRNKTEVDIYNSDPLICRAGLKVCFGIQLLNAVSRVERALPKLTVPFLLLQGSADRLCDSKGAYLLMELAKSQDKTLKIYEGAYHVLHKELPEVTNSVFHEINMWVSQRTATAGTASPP

Structure (SMILES) | IC50 (human recombinant MAGL) [nM] | IC50 (human recombinant FAAH) [nM]
O=C(Oc1cccc(-c2cncc(-c3nnco3)c2)c1)N1CC2(COC2)C1 [Example 152, 3-(5-(1,3,4-oxadiazol-2-yl)pyridin-3-yl)phenyl 2-oxa-6-azaspiro[3.3]heptane-6-carboxylate] | > 10000 | > 1000
O=C(Oc1cccc(-c2cncc(-c3nnco3)c2)c1)N1CCC2(CC1)COC2 [Example 153, 3-(5-(1,3,4-oxadiazol-2-yl)pyridin-3-yl)phenyl 2-oxa-7-azaspiro[3.5]nonane-7-carboxylate] | > 10000 | 1000 to 10000
CCCCN(CCCC)C(=O)Oc1cccc(-c2cncc(-c3nnco3)c2)c1 [Example 155, 3-(5-(1,3,4-oxadiazol-2-yl)pyridin-3-yl)phenyl dibutylcarbamate] | ~10000 | > 1000
CC1CCC(NC(=O)Oc2ccc(O)c(-c3cncc(-c4nnco4)c3)c2)CC1 (centres unmarked) [Example 159] | > 10000 | 10 to 100
CCCCCCCCNC(=O)Oc1cc(O)cc(-c2cncc(-c3nnco3)c2)c1 [Example 160, 3-(5-(1,3,4-oxadiazol-2-yl)pyridin-3-yl)-5-hydroxyphenyl octylcarbamate] | 1000 to 10000 | 1 to 10
O=C(NCC1CCCCC1)Oc1cc(O)cc(-c2cncc(-c3nnco3)c2)c1 [Example 161, 3-(5-(1,3,4-oxadiazol-2-yl)pyridin-3-yl)-5-hydroxyphenyl (cyclohexylmethyl)carbamate] | 10000 to 50000 | 10 to 100
O=C(NCc1ccccc1)Oc1cc(O)cc(-c2cncc(-c3nnco3)c2)c1 [Example 162, 3-(5-(1,3,4-oxadiazol-2-yl)pyridin-3-yl)-5-hydroxyphenyl benzylcarbamate] | > 10000 | ~100
O=C(NC1CCCC1)Oc1cc(O)cc(-c2cncc(-c3nnco3)c2)c1 [Example 163, 3-(5-(1,3,4-oxadiazol-2-yl)pyridin-3-yl)-5-hydroxyphenyl cyclopentylcarbamate] | > 50000 | 10 to 100
O=C(NC1CCCCC1)Oc1cc(O)cc(-c2cncc(-c3nnco3)c2)c1 [Example 164, 3-(5-(1,3,4-oxadiazol-2-yl)pyridin-3-yl)-5-hydroxyphenyl cyclohexylcarbamate] | > 50000 | 10 to 100
COc1ccc(OC(=O)NCC2CCCCC2)cc1-c1cncc(-c2nnco2)c1 [Example 168, 3-(5-(1,3,4-oxadiazol-2-yl)pyridin-3-yl)-4-methoxyphenyl (cyclohexylmethyl)carbamate] | > 10000 | 100 to 1000
COc1ccc(OC(=O)NC2CCCC2)cc1-c1cncc(-c2nnco2)c1 [Example 169, 3-(5-(1,3,4-oxadiazol-2-yl)pyridin-3-yl)-4-methoxyphenyl cyclopentylcarbamate] | > 10000 | 10 to 100
COc1ccc(OC(=O)NC2CCCCC2)cc1-c1cncc(-c2nnco2)c1 [Example 170, 3-(5-(1,3,4-oxadiazol-2-yl)pyridin-3-yl)-4-methoxyphenyl cyclohexylcarbamate] | ~10000 | 100 to 1000
COc1ccc(OC(=O)NC2CCC(C)CC2)cc1-c1cncc(-c2nnco2)c1 (centres unmarked) [Example 171, 3-(5-(1,3,4-oxadiazol-2-yl)pyridin-3-yl)-4-methoxyphenyl (4-methylcyclohexyl)carbamate] | > 10000 | 100 to 1000
CCCCCCCCNC(=O)Oc1cc(OC)cc(-c2cncc(-c3nnco3)c2)c1 [Example 174, 3-(5-(1,3,4-oxadiazol-2-yl)pyridin-3-yl)-5-methoxyphenyl octylcarbamate] | ~10000 | 1 to 10
COc1cc(OC(=O)NCC2CCCCC2)cc(-c2cncc(-c3nnco3)c2)c1 [Example 175, 3-(5-(1,3,4-oxadiazol-2-yl)pyridin-3-yl)-5-methoxyphenyl (cyclohexylmethyl)carbamate] | > 10000 | ~100
COc1cc(OC(=O)NCc2ccccc2)cc(-c2cncc(-c3nnco3)c2)c1 [Example 176, 3-(5-(1,3,4-oxadiazol-2-yl)pyridin-3-yl)-5-methoxyphenyl benzylcarbamate] | > 10000 | > 1000
COc1cc(OC(=O)NC2CCCC2)cc(-c2cncc(-c3nnco3)c2)c1 [Example 177, 3-(5-(1,3,4-oxadiazol-2-yl)pyridin-3-yl)-5-methoxyphenyl cyclopentylcarbamate] | > 10000 | 100 to 1000
COc1cc(OC(=O)NC2CCCCC2)cc(-c2cncc(-c3nnco3)c2)c1 [Example 178, 3-(5-(1,3,4-oxadiazol-2-yl)pyridin-3-yl)-5-methoxyphenyl cyclohexylcarbamate] | > 10000 | ~100
CCCCCCCCNC(=O)Oc1ccc(N(C)C)c(-c2cncc(-c3nnco3)c2)c1 [Example 180, 3-(5-(1,3,4-oxadiazol-2-yl)pyridin-3-yl)-4-(dimethylamino)phenyl octylcarbamate] | > 10000 | 10 to 100
CN(C)c1ccc(OC(=O)NCC2CCCCC2)cc1-c1cncc(-c2nnco2)c1 [Example 181, 3-(5-(1,3,4-oxadiazol-2-yl)pyridin-3-yl)-4-(dimethylamino)phenyl (cyclohexylmethyl)carbamate] | > 10000 | ~1000
CN(C)c1ccc(OC(=O)NCc2ccccc2)cc1-c1cncc(-c2nnco2)c1 [Example 182, 3-(5-(1,3,4-oxadiazol-2-yl)pyridin-3-yl)-4-(dimethylamino)phenyl benzylcarbamate] | > 10000 | > 1000
CN(C)c1ccc(OC(=O)NC2CCCCC2)cc1-c1cncc(-c2nnco2)c1 [Example 184, 3-(5-(1,3,4-oxadiazol-2-yl)pyridin-3-yl)-4-(dimethylamino)phenyl cyclohexylcarbamate] | > 10000 | > 1000
CN(C)c1ccc(OC(=O)NC2CCCCCC2)cc1-c1cncc(-c2nnco2)c1 [Example 185, 3-(5-(1,3,4-oxadiazol-2-yl)pyridin-3-yl)-4-(dimethylamino)phenyl cycloheptylcarbamate] | > 10000 | 100 to 1000
CSc1ccc(OC(=O)NCC2CCCCC2)cc1-c1cncc(-c2nnco2)c1 [Example 187, 3-(5-(1,3,4-oxadiazol-2-yl)pyridin-3-yl)-4-(methylthio)phenyl (cyclohexylmethyl) carbamate] | > 10000 | 100 to 1000
CSc1ccc(OC(=O)NCc2ccccc2)cc1-c1cncc(-c2nnco2)c1 [Example 188, 3-(5-(1,3,4-oxadiazol-2-yl)pyridin-3-yl)-4-(methylthio)phenyl benzylcarbamate] | > 10000 | > 1000
CSc1ccc(OC(=O)NC2CCCC2)cc1-c1cncc(-c2nnco2)c1 [Example 189, 3-(5-(1,3,4-oxadiazol-2-yl)pyridin-3-yl)-4-(methylthio)phenyl cyclopentylcarbamate] | > 10000 | 100 to 1000
CSc1ccc(OC(=O)NC2CCCCC2)cc1-c1cncc(-c2nnco2)c1 [Example 190, 3-(5-(1,3,4-oxadiazol-2-yl)pyridin-3-yl)-4-(methylthio)phenyl cyclohexylcarbamate] | > 10000 | 100 to 1000
O=C(NC1CCCCC1)Oc1ccc(F)c(-c2cncc(-c3nnco3)c2)c1 [Example 192, 3-(5-(1,3,4-oxadiazol-2-yl)pyridin-3-yl)-4-fluorophenyl cyclohexylcarbamate] | > 10000 | 10 to 100
